Laboratory results published in ChEMBL document CHEMBL5608259 (J Med Chem, 2024).

How the values were obtained:
[1] = biological target: T1, Protein arginine N-methyltransferase 8 (Homo sapiens, UniProt Q9NR22); assay: Inhibition of human PRMT8 using Histone H4 as substrate and SAM as cofactor at 10 uM by radiometric HotSpot assay relative to control
Target sequence in this assay (Q9NR22 2-394 limits assumed): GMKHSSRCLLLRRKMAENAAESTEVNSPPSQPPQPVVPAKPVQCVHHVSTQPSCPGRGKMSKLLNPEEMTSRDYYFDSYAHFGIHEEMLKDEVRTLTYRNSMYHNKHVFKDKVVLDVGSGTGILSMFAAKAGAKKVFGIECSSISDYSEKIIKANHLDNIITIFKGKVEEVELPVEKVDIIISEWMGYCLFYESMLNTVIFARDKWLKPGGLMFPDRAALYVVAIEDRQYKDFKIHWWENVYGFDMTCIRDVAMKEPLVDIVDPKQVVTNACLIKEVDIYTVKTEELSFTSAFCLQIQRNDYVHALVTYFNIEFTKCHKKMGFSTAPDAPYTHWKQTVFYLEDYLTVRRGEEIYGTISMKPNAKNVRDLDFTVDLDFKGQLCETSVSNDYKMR

[2] = biological target: T2, Protein arginine N-methyltransferase 1 (Homo sapiens, UniProt Q99873); assay: Inhibition of human PRMT1 using Histone H4 as substrate and SAM as cofactor by radiometric HotSpot assay
Target sequence in this assay (Q99873 whole entry): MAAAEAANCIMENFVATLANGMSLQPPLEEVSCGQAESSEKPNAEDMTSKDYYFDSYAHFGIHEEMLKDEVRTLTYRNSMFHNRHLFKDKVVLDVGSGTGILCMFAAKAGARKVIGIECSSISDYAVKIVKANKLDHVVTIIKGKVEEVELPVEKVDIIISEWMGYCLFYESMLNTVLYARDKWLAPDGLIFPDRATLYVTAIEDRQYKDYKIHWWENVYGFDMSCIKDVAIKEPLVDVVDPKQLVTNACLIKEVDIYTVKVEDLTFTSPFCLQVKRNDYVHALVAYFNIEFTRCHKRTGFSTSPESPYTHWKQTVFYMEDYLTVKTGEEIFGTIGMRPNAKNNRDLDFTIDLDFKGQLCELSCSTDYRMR

[3] = biological target: T3, Protein arginine N-methyltransferase 6 (Homo sapiens, UniProt Q96LA8); assay: Inhibition of human PRMT6 using GST-GAR as substrate and SAM as cofactor at 10 uM by radiometric HotSpot assay relative to control
Target sequence in this assay (Q96LA8 whole entry, looked up): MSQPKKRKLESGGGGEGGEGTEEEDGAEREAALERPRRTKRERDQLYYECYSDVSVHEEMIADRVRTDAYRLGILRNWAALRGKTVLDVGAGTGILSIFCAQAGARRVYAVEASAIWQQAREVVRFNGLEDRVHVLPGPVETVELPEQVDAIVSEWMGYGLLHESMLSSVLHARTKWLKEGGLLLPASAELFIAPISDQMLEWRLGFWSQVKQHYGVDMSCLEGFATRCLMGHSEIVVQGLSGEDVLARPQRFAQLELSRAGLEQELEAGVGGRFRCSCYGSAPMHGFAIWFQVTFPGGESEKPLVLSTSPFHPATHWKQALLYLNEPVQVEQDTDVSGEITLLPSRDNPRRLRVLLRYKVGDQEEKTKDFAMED

[4] = biological target: T4, PRMT5/MEP50 complex (Homo sapiens, UniProt O14744); assay: Inhibition of human PRMT5/MEP50 using Histone H2 as substrate and SAM as cofactor by radiometric HotSpot assay; assay type: protein-complex assay
T4 sequence (O14744 whole entry): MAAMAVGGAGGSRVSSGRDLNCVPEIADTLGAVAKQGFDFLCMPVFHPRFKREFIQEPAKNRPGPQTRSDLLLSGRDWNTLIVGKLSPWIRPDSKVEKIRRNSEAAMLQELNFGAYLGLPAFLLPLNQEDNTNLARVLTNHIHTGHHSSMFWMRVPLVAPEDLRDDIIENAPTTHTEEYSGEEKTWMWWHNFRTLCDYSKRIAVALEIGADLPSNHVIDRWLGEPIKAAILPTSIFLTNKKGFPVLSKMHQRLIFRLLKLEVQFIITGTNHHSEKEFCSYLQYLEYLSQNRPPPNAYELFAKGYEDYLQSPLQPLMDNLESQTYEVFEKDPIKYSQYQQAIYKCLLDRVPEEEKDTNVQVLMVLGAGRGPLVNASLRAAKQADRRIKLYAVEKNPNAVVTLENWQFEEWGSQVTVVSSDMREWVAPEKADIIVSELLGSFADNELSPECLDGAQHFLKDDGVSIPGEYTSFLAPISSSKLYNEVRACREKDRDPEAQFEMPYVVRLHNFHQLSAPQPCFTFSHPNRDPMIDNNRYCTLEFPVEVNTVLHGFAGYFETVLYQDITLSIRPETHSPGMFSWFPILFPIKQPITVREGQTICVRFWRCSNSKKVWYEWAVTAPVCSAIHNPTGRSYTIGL
T4 sequence (Q9BQA1 whole entry, further chain): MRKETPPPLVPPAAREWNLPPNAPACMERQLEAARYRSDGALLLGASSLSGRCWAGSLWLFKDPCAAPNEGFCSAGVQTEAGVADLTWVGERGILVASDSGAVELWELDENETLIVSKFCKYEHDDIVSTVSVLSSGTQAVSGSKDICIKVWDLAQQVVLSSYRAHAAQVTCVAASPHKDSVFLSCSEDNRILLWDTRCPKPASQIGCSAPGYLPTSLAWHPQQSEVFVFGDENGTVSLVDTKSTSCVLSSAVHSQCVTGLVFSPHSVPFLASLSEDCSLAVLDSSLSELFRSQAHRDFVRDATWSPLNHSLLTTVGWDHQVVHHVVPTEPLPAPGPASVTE

[5] = biological target: T5, Protein arginine N-methyltransferase 3 (Homo sapiens, UniProt O60678); assay: Inhibition of human PRMT3 using Histone H3 as substrate and SAM as cofactor by radiometric HotSpot assay
T5 sequence (O60678 whole entry): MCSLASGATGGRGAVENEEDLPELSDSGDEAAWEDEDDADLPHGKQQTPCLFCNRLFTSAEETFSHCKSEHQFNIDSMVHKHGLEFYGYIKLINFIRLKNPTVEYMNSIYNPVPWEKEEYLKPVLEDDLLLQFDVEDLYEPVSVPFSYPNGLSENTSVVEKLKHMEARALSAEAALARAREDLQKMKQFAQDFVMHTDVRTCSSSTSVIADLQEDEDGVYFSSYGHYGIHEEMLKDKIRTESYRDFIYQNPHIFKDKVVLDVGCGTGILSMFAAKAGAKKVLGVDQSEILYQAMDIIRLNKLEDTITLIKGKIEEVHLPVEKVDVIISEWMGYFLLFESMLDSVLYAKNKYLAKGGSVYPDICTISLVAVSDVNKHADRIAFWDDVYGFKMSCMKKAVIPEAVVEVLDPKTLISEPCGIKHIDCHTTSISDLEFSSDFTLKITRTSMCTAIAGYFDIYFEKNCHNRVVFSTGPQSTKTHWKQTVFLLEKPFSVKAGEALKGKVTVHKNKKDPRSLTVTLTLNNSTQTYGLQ

[6] = biological target: T3, Protein arginine N-methyltransferase 6; assay: Inhibition of PRMT6 (unknown origin)
Target sequence in this assay (Q96LA8 whole entry): as the sequence (Q96LA8 whole entry, looked up) above

[7] = biological target: T1, Protein arginine N-methyltransferase 8; assay: Inhibition of human PRMT8 using Histone H4 as substrate and SAM as cofactor by radiometric HotSpot assay
Target sequence in this assay (Q9NR22 whole entry): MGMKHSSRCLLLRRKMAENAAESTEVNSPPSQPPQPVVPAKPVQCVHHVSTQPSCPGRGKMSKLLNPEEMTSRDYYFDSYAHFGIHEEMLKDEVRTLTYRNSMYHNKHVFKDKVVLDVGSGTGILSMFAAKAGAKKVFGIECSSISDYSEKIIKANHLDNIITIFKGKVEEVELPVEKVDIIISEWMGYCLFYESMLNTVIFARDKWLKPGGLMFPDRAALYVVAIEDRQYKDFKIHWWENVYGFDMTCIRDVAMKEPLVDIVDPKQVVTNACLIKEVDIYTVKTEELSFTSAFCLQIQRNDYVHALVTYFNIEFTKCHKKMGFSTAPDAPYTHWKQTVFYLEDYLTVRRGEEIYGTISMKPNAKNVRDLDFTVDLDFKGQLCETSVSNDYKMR

[8] = biological target: T6, Protein arginine N-methyltransferase 7 (Homo sapiens, UniProt Q9NVM4); assay: Inhibition of human PRMT7 using GST-GAR as substrate and SAM as cofactor by radiometric HotSpot assay
T6 sequence (Q9NVM4 whole entry): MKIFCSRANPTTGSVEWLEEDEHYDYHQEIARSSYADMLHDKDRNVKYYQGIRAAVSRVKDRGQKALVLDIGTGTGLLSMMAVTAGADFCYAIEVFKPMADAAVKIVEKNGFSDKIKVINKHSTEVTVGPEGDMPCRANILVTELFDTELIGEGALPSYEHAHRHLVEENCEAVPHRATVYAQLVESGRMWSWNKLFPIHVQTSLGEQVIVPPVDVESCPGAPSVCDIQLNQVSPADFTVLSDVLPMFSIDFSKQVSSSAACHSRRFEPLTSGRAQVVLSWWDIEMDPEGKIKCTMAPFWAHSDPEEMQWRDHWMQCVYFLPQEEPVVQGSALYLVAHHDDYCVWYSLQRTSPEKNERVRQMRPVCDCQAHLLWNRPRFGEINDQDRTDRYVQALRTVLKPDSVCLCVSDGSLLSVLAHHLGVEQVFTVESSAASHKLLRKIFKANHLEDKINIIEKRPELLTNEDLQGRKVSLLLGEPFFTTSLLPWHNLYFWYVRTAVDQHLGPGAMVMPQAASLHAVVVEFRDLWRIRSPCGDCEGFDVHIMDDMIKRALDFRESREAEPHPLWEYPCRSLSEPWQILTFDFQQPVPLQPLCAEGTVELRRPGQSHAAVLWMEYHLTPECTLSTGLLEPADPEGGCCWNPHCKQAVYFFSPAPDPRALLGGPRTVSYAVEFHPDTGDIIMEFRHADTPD

[9] = biological target: T2, Protein arginine N-methyltransferase 1; assay: Inhibition of human PRMT1 using H4-21peptide as substrate at 10 uM incubated for 10 mins by fluorescence based analysis relative to control
Target sequence in this assay (Q99873 whole entry, looked up): as the sequence (Q99873 whole entry) above

[10] = biological target: T3, Protein arginine N-methyltransferase 6; assay: Inhibition of PRMT6 (unknown origin) incubated for 1 hr in presence of 3H-SAM by topcount plate reader analysis
Target sequence in this assay (Q96LA8 whole entry): as the sequence (Q96LA8 whole entry, looked up) above

[11] = biological target: T7, Histone-arginine methyltransferase CARM1 (Homo sapiens, UniProt Q86X55); assay: Inhibition of PRMT4 (unknown origin) incubated for 1 hr in presence of 3H-SAM by topcount plate reader analysis
T7 sequence (Q86X55 whole entry): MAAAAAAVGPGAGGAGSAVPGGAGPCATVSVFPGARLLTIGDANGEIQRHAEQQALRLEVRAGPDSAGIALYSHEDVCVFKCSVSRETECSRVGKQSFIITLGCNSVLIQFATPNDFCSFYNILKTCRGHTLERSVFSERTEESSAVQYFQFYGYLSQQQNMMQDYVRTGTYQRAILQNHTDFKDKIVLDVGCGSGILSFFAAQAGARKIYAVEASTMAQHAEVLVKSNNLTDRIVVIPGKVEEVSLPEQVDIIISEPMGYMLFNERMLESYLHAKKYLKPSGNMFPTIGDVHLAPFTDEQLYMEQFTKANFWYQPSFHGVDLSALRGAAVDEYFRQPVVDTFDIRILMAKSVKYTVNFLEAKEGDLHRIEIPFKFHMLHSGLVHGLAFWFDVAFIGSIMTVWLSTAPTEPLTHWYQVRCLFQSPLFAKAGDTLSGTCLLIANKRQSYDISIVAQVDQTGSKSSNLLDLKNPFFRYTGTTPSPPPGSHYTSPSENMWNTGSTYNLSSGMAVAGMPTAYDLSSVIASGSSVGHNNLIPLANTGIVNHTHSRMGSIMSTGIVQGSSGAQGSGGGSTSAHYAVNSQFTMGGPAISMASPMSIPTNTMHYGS

[12] = biological target: T1, Protein arginine N-methyltransferase 8; assay: Inhibition of PRMT8 (unknown origin) incubated for 1 hr in presence of 3H-SAM by topcount plate reader analysis
Target sequence in this assay (Q9NR22 whole entry): as the sequence (Q9NR22 whole entry) above

[13] = biological target: T6, Protein arginine N-methyltransferase 7; assay: Inhibition of PRMT7 (unknown origin) incubated for 1 hr in presence of 3H-SAM by topcount plate reader analysis
[14] = biological target: T4, PRMT5/MEP50 complex; assay: Inhibition of PRMT5/MEP50 (unknown origin) incubated for 1 hr in presence of 3H-SAM by topcount plate reader analysis; assay type: protein-complex assay
[15] = biological target: T2, Protein arginine N-methyltransferase 1; assay: Inhibition of PRMT1 (unknown origin) incubated for 1 hr in presence of 3H-SAM by topcount plate reader analysis
Target sequence in this assay (Q99873 whole entry): as the sequence (Q99873 whole entry) above

[16] = biological target: T5, Protein arginine N-methyltransferase 3; assay: Inhibition of PRMT3 (unknown origin) incubated for 1 hr in presence of 3H-SAM by topcount plate reader analysis
[17] = biological target: T6, Protein arginine N-methyltransferase 7; assay: Inhibition of PRMT7 (unknown origin)
[18] = biological target: T7, Histone-arginine methyltransferase CARM1; assay: Inhibition of PRMT4 (unknown origin)
[19] = biological target: Protein arginine N-methyltransferase 5 (Homo sapiens, UniProt O14744); assay: Inhibition of PRMT5 (unknown origin)
Chain of Protein arginine N-methyltransferase 5 (O14744 whole entry): as the sequence (O14744 whole entry) above

[20] = biological target: T1, Protein arginine N-methyltransferase 8; assay: Inhibition of PRMT8 (unknown origin)
Target sequence in this assay (Q9NR22 whole entry): as the sequence (Q9NR22 whole entry) above

[21] = biological target: T5, Protein arginine N-methyltransferase 3; assay: Inhibition of PRMT3 (unknown origin)
[22] = biological target: T7, Histone-arginine methyltransferase CARM1; assay: Inhibition of human PRMT4 using histone H3 as substrate and SAM as cofactor by radiometric HotSpot assay

## N=C(NCCSC[C@H]1O[C@@H](n2cnc3c(N)ncnc32)[C@H](O)[C@@H]1O)Nc1ccccc1
[1]
  inhibition: > 95%
[2]
  IC50: > 10 µM
[3]
  inhibition: > 90%
[4]
  IC50: 351 nM
[5]
  IC50: 321 nM
[6]
  IC50: > 10000 nM
[7]
  IC50: > 10 µM
[8]
  IC50: 2.4 µM
[9]
  inhibition: > 50%

## Nc1ncnc2c1ncn2[C@@H]1O[C@H](CSCCCCNCc2cccc(-c3ccc(Cl)cc3)c2)[C@@H](O)[C@H]1O
[10]
  IC50: 1500 nM
[11]
  IC50: 140 nM
[12]
  IC50: 7 µM
[13]
  IC50: < 2.5 nM
[14]
  IC50: 150 nM
[15]
  IC50: 1200 nM
[16]
  IC50: 1600 nM

## N=C(NCCSC[C@H]1O[C@@H](n2cnc3c(N)ncnc32)[C@H](O)[C@@H]1O)Nc1ccccc1Br
[17]
  IC50: 555 nM
[6]
  IC50: 30.5 nM
[18]
  IC50: 5.05 nM
[19]
  IC50: 18.2 nM
[20]
  IC50: 32.1 nM
[21]
  IC50: 321 nM

## N=C(N)NCCC[C@H](N)C(=O)NCC(=O)N[C@@H](CCCN)C(=O)N[C@@H](CCCNC(=N)NCCCSC[C@H]1O[C@@H](n2cnc3c(N)ncnc32)[C@H](O)[C@@H]1O)C(=O)O
[22]
  IC50: 2.8 nM
[2]
  IC50: 5.9 µM
[4]
  IC50: 0.42 nM
[5]
  IC50: > 10000 nM
[7]
  IC50: > 10 µM
[8]
  IC50: 8.3 µM
